Where a name gives a salt, the structure may show the parent alone. Read-outs that look alike come from different tables or passages of the source.
Columns and labels:
[1] = tested on: erythroid progenitor cells (EPCs); assay: Fetal hemoglobin (HbF) ELISA in day 7 erythroid progenitor cells; assay type: cell-based, human; conditions: Homo sapiens, Erythroid progenitor cell;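 on EPC ELISA (pEC50 category): for fetal hemoglobin induction normalized to vehicle-treated cells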
Procedure, shortened: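 HbF induction was read by anti-HbF sandwich ELISA (HRP/TMB, OD450) on lysates and normalized to vehicle-treated cells. Cells were day 7 erythroid progenitors derived from human bone marrow CD34+ cells, seeded at 1,000/well with 3 U/mL rhEPO. Compound was given for 5 days at 37 °C at final concentrations […].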

[2] = target: DNMT1 (Homo sapiens, UniProt P26358); assay: DNMT1 biochemical activity, breaklight assay and/or SPA assay; conditions: for IC50 / DNMT1 BioChemical (pIC50 category): binned activity in either the breaklight or the SPA assay
[3] = HbF ELISA, day 7 EPCs, 5 days, read-out: EPC ELISA (pEC50 category) (converted)
[4] = read-out: DNMT1 BioChemical (pIC50 category) (converted)

Chain of DNMT1 (P26358 whole entry, looked up): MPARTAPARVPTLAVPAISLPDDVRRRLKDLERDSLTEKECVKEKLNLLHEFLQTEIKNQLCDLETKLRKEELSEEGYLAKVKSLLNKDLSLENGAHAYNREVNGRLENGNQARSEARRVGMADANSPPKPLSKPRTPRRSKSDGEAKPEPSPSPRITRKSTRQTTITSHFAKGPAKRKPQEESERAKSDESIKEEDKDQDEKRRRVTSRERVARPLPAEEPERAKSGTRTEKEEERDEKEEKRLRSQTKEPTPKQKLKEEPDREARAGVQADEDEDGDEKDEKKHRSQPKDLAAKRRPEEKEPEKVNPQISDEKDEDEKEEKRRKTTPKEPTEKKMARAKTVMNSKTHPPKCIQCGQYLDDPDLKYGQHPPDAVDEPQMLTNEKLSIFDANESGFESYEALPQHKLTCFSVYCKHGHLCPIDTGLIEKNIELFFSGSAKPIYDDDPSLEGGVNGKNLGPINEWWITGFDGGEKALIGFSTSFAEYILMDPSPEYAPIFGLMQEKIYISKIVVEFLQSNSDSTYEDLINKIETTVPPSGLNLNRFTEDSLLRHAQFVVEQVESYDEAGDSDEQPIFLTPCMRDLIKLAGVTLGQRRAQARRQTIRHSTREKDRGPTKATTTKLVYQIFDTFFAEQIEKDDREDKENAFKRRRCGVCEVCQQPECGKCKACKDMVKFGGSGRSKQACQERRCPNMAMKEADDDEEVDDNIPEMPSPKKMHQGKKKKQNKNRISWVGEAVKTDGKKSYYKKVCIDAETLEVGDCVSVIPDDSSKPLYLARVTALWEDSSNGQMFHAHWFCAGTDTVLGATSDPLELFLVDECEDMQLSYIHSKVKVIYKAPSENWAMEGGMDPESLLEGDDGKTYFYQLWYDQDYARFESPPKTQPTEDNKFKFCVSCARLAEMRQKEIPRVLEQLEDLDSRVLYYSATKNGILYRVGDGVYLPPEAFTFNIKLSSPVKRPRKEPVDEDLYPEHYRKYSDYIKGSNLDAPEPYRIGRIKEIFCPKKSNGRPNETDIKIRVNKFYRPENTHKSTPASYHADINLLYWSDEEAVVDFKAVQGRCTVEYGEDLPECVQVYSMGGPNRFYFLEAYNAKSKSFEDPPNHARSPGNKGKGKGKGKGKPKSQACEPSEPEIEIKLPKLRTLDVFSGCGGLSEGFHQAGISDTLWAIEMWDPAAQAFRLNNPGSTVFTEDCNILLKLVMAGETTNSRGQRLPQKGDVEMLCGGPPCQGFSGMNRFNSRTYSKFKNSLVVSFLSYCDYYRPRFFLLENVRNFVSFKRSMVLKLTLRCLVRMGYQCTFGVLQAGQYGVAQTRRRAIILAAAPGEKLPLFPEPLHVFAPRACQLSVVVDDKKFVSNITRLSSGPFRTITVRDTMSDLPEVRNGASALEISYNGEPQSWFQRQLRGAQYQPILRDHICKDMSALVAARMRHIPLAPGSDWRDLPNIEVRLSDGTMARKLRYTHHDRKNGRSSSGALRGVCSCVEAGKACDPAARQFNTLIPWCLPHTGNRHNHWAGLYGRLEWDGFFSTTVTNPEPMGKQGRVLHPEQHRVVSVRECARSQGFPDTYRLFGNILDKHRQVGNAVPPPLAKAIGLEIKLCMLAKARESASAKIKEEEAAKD

EC50 [1, 3] [nM]	IC50 [2, 4] [nM]	SMILES	also measured
1000 to 31600	316 to 1000	CCc1c(C#N)c(N[C@@H](C(N)=O)c2ccccc2)nc(N2CCCNCC2)c1C#N [Example 41, (R)-2-((3,5-dicyano-6-(1,4-diazepan-1-yl)-4-ethylpyridin-2-yl)amino)-2-phenylacetamide]	–
< 316	–	CCc1c(C#N)c(SC(C(N)=O)c2ccccc2)nc(N2CCCN(C)CC2)c1C#N (stereo not shown) [Example 56, 2-((3,5-Dicyano-4-ethyl-6-(4-methyl-1,4-diazepan-1-yl)pyridin-2-yl)thio)-2-phenylacetamide]	DNMT1 BioChemical (pIC50 category) [2]: D (Category D: ≥6.5)
< 316	316 to 1000	CCc1c(C#N)c(SC(C(N)=O)c2ccccc2)nc(N2CCNCC2)c1C#N (stereo not shown) [Example 55, 2-((3,5-Dicyano-4-ethyl-6-(piperazin-1-yl)pyridin-2-yl)thio)-2-phenylacetamide]	–
1000 to 31600	316 to 1000	CCc1c(C#N)c(SC(C(N)=O)c2ccccc2)nc(N2CCC(O)CC2)c1C#N (stereo not shown) [Example 48, 2-((3,5-Dicyano-4-ethyl-6-(4-hydroxypiperidin-1-yl)pyridin-2-yl)thio)-2-phenylacetamide]	–
316 to 1000	316 to 1000	CCc1c(C#N)c(SC(C(N)=O)c2ccccc2)nc(N2CCOCC2)c1C#N (stereo not shown) [Example 57, 2-((3,5-Dicyano-4-ethyl-6-morpholinopyridin-2-yl)thio)-2-phenylacetamide]	–
< 316	–	CN1CCN(C2CCN(c3nc(SC(C(N)=O)c4ccccc4)c(C#N)c(C4CC4)c3C#N)CC2)CC1 (stereo not shown) [Example 40, 2-((3,5-Dicyano-4-cyclopropyl-6-(4-(4-methylpiperazin-1-yl)piperidin-1-yl)pyridin-2-yl)thio)-2-phenylacetamide]	DNMT1 BioChemical (pIC50 category) [2]: D (Category D: ≥6.5)
> 31600	316 to 1000	CC(Sc1nc(N2CCCNCC2)c(C#N)c(C2CC2)c1C#N)C(N)=O (stereo not shown) [Example 46, 2-((3,5-dicyano-4-cyclopropyl-6-(1,4-diazepan-1-yl)pyridin-2-yl)thio)propanamide]	–
316 to 1000	316 to 1000	N#Cc1c(SC(C(N)=O)c2ccccc2)nc(N2CCOC(CO)C2)c(C#N)c1C1CC1 (stereo not shown) [Example 63, 2-((3,5-Dicyano-4-cyclopropyl-6-(2-(hydroxymethyl)morpholino)pyridin-2-yl)thio)-2-phenylacetamide]	–

More lines, now with the values behind:

SMILES	EC50 [1, 3] [nM]	IC50 [2, 4] [nM]	also measured
N#Cc1c(SC(C(N)=O)c2ccncc2)nc(N2CCOCC2)c(C#N)c1C1CC1 (stereo not shown) [Example 9, 2-((3,5-dicyano-4-cyclopropyl-6-morpholinopyridin-2-yl)thio)-2-(pyridin-4-yl)acetamide]	> 31600	316 to 1000	–
CCc1c(C#N)c(SC(C(N)=O)c2ccccc2)nc(N2CCNC(=O)CC2)c1C#N (stereo not shown) [Example 8, 2-{[3,5-dicyano-4-ethyl-6-(5-oxo-1,4-diazepan-1-yl)pyridin-2-yl]sulfanyl}-2-phenylacetamide]	1000 to 31600	316 to 1000	–
CCc1c(C#N)c(SC(C(N)=O)c2ccccc2)nc(N2CCC23CCNCC3)c1C#N (stereo not shown) [Example 38, 2-((3,5-Dicyano-4-ethyl-6-(1,7-diazaspiro[3.5]nonan-1-yl)pyridin-2-yl)thio)-2-phenylacetamide trifluoroacetate]	–	–	EC50 ([1]; read-out: EPC ELISA (pEC50 category) (converted)): 316 to 1000 nM; IC50 ([2]; DNMT1 BioChemical (pIC50 category)): 316 to 1000 nM
CCc1c(C#N)c(SC(C(N)=O)c2ccccc2)nc(N2CCN(CC)CC2)c1C#N (stereo not shown) [Example 35, 2-((3,5-dicyano-4-ethyl-6-(4-ethylpiperazin-1-yl)pyridin-2-yl)thio)-2-phenylacetamide]	1000 to 31600	316 to 1000	–
CCc1c(C#N)c(SC(C(N)=O)c2ccccc2)nc(N(C)C)c1C#N (stereo not shown) [Compound A, 2-{[3,5-dicyano-6-(dimethylamino)-4-ethylpyridin-2-yl]sulfanyl}-2-phenylacetamide]	–	–	EC50 ([1]; day 7 EPCs, 5 days at 37° C, read-out: increase in HbF, average pEC50 (converted)): 316 nM
CN1CCN(CC2CCN(c3nc(SC(C(N)=O)c4ccccc4)c(C#N)c(C4CC4)c3C#N)CC2)CC1 (stereo not shown) [Example 125, 2-((3,5-Dicyano-4-cyclopropyl-6-(4-((4-methylpiperazin-1-yl)methyl)piperidin-1-yl)pyridin-2-yl)thio-2-phenylacetamide trifluoroacetate]	< 316	–	DNMT1 BioChemical (pIC50 category) [2]: D (Category D: ≥6.5); average pIC50 against DNMT1 ([2]; breaklight assay and/or SPA assay, repeated experimental runs): > 6.5
